# Source: ChEMBL document CHEMBL5375981, “Enhanced Tumor Targeting and Penetration of Proteolysis-Targeting Chimeras through iRGD Peptide Conjugation: A Strategy for Precise Protein Degradation in Breast Cancer” (J Med Chem, 2023)
# The source made the active and inactive calls. The rule behind the calls is not given here.
# Experiments:
# [1] = Toxicity in BALB/C mouse xenografted with human MDA-MB-231 cells assessed as effect on spleen weight at 5 to 8 uM, iv administered every other day for 21 days; type: organism-based; conditions: in vivo, 504 h, dose 5-8 µM, time 21 day
# [2] = Drug release in PBS assessed as increase in (2S)-1-((R)-2-(tert-butyl)-17-((S)-4-(4-chlorophenyl)-2,3,9-trimethyl-6H-thieno[3,2-f][1,2,4]triazolo[4,3-a][1,4]diazepin-6-yl)-4,16-dioxo-6,9,12-trioxa-3,15-diazaheptadecanoyl)-4-hydroxy-N-((S)-1-(4-(4-methylthiazol-5-yl)phenyl)ethyl)pyrrolidine-2-carboxamide concentration at 50 uM in presence of GSH by LC-MS analysis; type: ADME; conditions: buffer, TDE = time-dependent effect
# [3] = Toxicity in BALB/C mouse xenografted with human MDA-MB-231 cells assessed as heart damage at 5 to 8 uM, iv administered every other day for 21 days and measured 37 days post treatment by H and E staining based assay; type: organism-based; conditions: in vivo, 1392 h, dose 5-8 µM, time 58 day
# Homo sapiens [4] = species: Homo sapiens; test: Antitumor activity against patient-derived Breast cancer organoid assessed as increase in number of apoptotic cells by measuring increase in red fluorescence at 0.5 to 1 uM incubated for approximately 3 to 5 days by acridine orange/ethidium bromide double staining ssay; type: functional, cell-based; conditions: dose 0.5-1 µM, time 3-5 day
# [5] = Toxicity in BALB/C mouse xenografted with human MDA-MB-231 cells assessed as kidney damage at 5 to 8 uM, iv administered every other day for 21 days and measured 37 days post treatment by H and E staining based assay; type: organism-based; conditions: in vivo, 1392 h, dose 5-8 µM, time 58 day
# [6] = Toxicity in BALB/C mouse xenografted with human MDA-MB-231 cells assessed as adverse reactions at 5 to 8 uM, iv administered for 21 days and measured every 3 days; type: organism-based; conditions: in vivo, 504 h, dose 5-8 µM, time 21 day
# [7] = Toxicity in BALB/C mouse xenografted with human MDA-MB-231 cells assessed as effect on lung weight at 5 to 8 uM, iv administered every other day for 21 days; type: organism-based; conditions: in vivo, 504 h, dose 5-8 µM, time 21 day
# [8] = Antitumor activity against patient-derived Breast cancer organoid assessed as inhibition of cell growth incubated for approximately 3 to 5 days by CCK-8 assay; type: functional, tissue-based; conditions: Homo sapiens
# MDA-MB-231 [9] = test: Antiproliferative activity against human MDA-MB-231 cells harboring high integrin alphaVbeta3 expression assessed as inhibition of cell growth incubated for 72 hrs by CCK-8 assay; type: functional, cell-based; conditions: MDA-MB-231, 72 h
# MCF7 = test: Antiproliferative activity against human MCF7 cells harboring low integrin alphaVbeta3 expression assessed as inhibition of cell growth incubated for 72 hrs by CCK-8 assay; type: functional, cell-based; conditions: MCF7, 72 h
# [10] = target: Bromodomain-containing protein 4 (Homo sapiens) (UniProt O60885); test: Induction of BRD4 degradation in human L02 cells lacking integrin alphaVbeta3 expression at 300 nM incubated for 12 hrs by immunofluorescence staining based confocal microscopic analysis; type: cell-based
# L02 = test: Antiproliferative activity against human L02 cells harboring minimal integrin alphaVbeta3 expression assessed as inhibition of cell growth incubated for 72 hrs by CCK-8 assay; type: functional, cell-based; conditions: L02, 72 h
# [11] = Toxicity in BALB/C mouse xenografted with human MDA-MB-231 cells assessed as effect on liver weight at 5 to 8 uM, iv administered every other day for 21 days; type: organism-based; conditions: in vivo, 504 h, dose 5-8 µM, time 21 day
# [12] = Toxicity in BALB/C mouse xenografted with human MDA-MB-231 cells assessed as effect on heart weight at 5 to 8 uM, iv administered every other day for 21 days; type: organism-based; conditions: in vivo, 504 h, dose 5-8 µM, time 21 day
# Homo sapiens [13] = species: Homo sapiens; test: Antitumor activity against patient-derived Breast cancer organoid assessed as reduction in number of proliferating cells by measuring reduction in red fluorescence at 0.5 uM incubated for approximately 3 days by Edu incorporation assay; type: functional, tissue-based; conditions: time 3.0 day
# [14] = Toxicity in BALB/C mouse xenografted with human MDA-MB-231 cells assessed as weight loss at 5 to 8 uM, iv administered for 21 days and measured every 3 days; type: organism-based; conditions: in vivo, 504 h, dose 5-8 µM, time 21 day
# [15] = target: Bromodomain-containing protein 4 (Homo sapiens) (UniProt O60885); test: Induction of BRD4 degradation in human MDA-MB-231 cells harboring high integrin alphaVbeta3 expression at 1 uM incubated for 12 hrs by immunofluorescence staining based confocal microscopic analysis; type: cell-based
# [16] = target: Bromodomain-containing protein 4 (Homo sapiens) (UniProt O60885); test: Induction of BRD4 degradation in human MDA-MB-231 cells harboring high integrin alphaVbeta3 expression assessed as reduction in BRD4 levels at 500 nM pretreated with integrin receptor antagonist cilengitide for 2 hrs followed by compound addition and measured after 12 hrs by immunofluorescence staining based confocal microscopic analysis; type: cell-based
# [17] = target: Bromodomain-containing protein 4 (Homo sapiens) (UniProt O60885); test: Induction of BRD4 degradation in human MDA-MB-231 cells harboring high integrin alphaVbeta3 expression at 0.1 to 1 uM incubated for 24 hrs by Western blot analysis; type: cell-based; conditions: dose 0.1-1 µM
# [18] = target: Bromodomain-containing protein 4 (Homo sapiens) (UniProt O60885); test: Induction of BRD4 degradation in human MCF7 cells harboring low integrin alphaVbeta3 expression at 300 nM incubated for 12 hrs by immunofluorescence staining based confocal microscopic analysis; type: cell-based
# MDA-MB-231 [19] = test: Antitumor activity against human MDA-MB-231 cells xenografted in BALB/C nude mouse assessed as tumor growth inhibition at 8 uM, iv administered every other day and measured after 21 days by vernier caliper method relative to control; type: functional; conditions: MDA-MB-231, 504 h, time 21 day, read-out: TGI
# Homo sapiens [20] = species: Homo sapiens; test: Antitumor activity against patient-derived Breast cancer organoid assessed as inhibition of cell growth at 0.5 to 1 uM incubated for 3 days by CCK-8 assay; type: functional, tissue-based; conditions: dose 0.5-1 µM, time 3.0 day
# [21] = Stability of compound in PBS containing 5% serum at 50 uM measured after 72 hrs by LC-MS analysis; type: physicochemical, cell-free; conditions: read-out: Stability
# Homo sapiens [22] = species: Homo sapiens; test: Antitumor activity against patient-derived Breast cancer organoid assessed as increase in number of apoptotic cells by measuring reduction in green fluorescence at 0.5 to 1 uM incubated for approximately 3 to 5 days by acridine orange/ethidium bromide double staining ssay; type: functional, cell-based; conditions: dose 0.5-1 µM, time 3-5 day
# [23] = Toxicity in BALB/C mouse xenografted with human MDA-MB-231 cells assessed as lung damage at 5 to 8 uM, iv administered every other day for 21 days and measured 37 days post treatment by H and E staining based assay; type: organism-based; conditions: in vivo, 1392 h, dose 5-8 µM, time 58 day
# MDA-MB-231 [24] = test: Antitumor activity against human MDA-MB-231 cells xenografted in BALB/C nude mouse assessed as appearance of collapsed extravascular tumor tissue at 5 uM, iv administered every other day and measured after 21 days by H and E staining based assay; type: functional, organism-based; conditions: time 21.0 day
# MDA-MB-231 [25] = test: Antitumor activity against human MDA-MB-231 cells xenografted in BALB/C nude mouse assessed as tumor growth inhibition at 5 uM, iv administered every other day and measured after 21 days by vernier caliper method relative to control; type: functional; conditions: MDA-MB-231, 504 h, time 21 day, read-out: TGI
# Mus musculus = test: In vivo induction of BRD4 degradation in BALB/C mouse xenografted with human MDA-MB-231 cells assessed as reduction in BRD4 level by measuring reduction in green fluorescence at 5 to 8 uM, iv administered every other day and measured after 21 days by immunofluorescence analysis; type: functional, organism-based; conditions: dose 5-8 µM, time 21.0 day
# [26] = Toxicity in BALB/C mouse xenografted with human MDA-MB-231 cells assessed as spleen damage at 5 to 8 uM, iv administered every other day for 21 days and measured 37 days post treatment by H and E staining based assay; type: organism-based; conditions: in vivo, 1392 h, dose 5-8 µM, time 58 day
# [27] = target: Bromodomain-containing protein 4 (Homo sapiens) (UniProt O60885); test: Induction of BRD4 degradation in human MDA-MB-231 cells harboring high integrin alphaVbeta3 expression at 300 nM incubated for 16 to 20 hrs by Western blot analysis; type: cell-based; conditions: time 16-20 hrs
structure (smiles),measurement,setting,value
Cc1ncsc1-c1ccc([C@H](C)NC(=O)[C@@H]2C[C@@H](OC(=O)OCCSSCCOC(=O)CCC(=O)NCCCC[C@@H]3NC(=O)[C@H](CC(=O)O)NC(=O)CNC(=O)[C@H](CCCNC(=N)N)NC(=O)[C@@H](N)CSSC[C@@H](C(=O)O)NC(=O)[C@H](CC(=O)O)NC(=O)[C@@H]4CCCN4C(=O)CNC3=O)CN2C(=O)[C@@H](NC(=O)COCCOCCOCCNC(=O)C[C@@H]2N=C(c3ccc(Cl)cc3)c3c(sc(C)c3C)-n3c(C)nnc32)C(C)(C)C)cc1,Activity,[1],Non-Toxic
same,Drug metabolism,[2],Tde
same,Activity,[3],Non-Toxic
same,Activity,Homo sapiens [4],Active
same,Activity,[5],Non-Toxic
same,Activity,[6],Non-Toxic
same,Activity,[7],Non-Toxic
same,IC50,[8],950 nM
same,IC50,MDA-MB-231 [9],88 nM
same,IC50,MCF7,260 nM
same,Activity,[10],inactive
same,IC50,L02,1500 nM
same,Activity,[11],Non-Toxic
same,Activity,[12],Non-Toxic
same,Activity,Homo sapiens [13],Active
same,Activity,[14],Non-Toxic
same,Activity,[15],Active
same,Activity,[16],inactive
same,Activity,[17],Active
same,Activity,[18],inactive
same,inhibition in vivo at 8 µM,MDA-MB-231 [19],81.5%
same,Activity,Homo sapiens [20],Active
same,"remaining at 72 h, 50 µM",[21],89.9%
same,Activity,Homo sapiens [22],Active
same,Activity,[23],Non-Toxic
same,Activity,MDA-MB-231 [24],Active
same,inhibition in vivo at 5 µM,MDA-MB-231 [25],62.3%
same,Activity,Mus musculus,Active
same,Activity,[26],Non-Toxic
same,Activity,[27],Active
